The text below walks through data of US20230331652A1, “TRANS-CYCLOOCTENES WITH HIGH REACTIVITY AND FAVORABLE PHYSIOCHEMICAL PROPERTIES” (University of Delaware, priority 2020, published 2023).

The structures appear in SMILES notation.

Data set [1] in a line: Storage stability of neat TCO. It is filed as physicochemical. The following applies: neat versus stored in solution. An excerpt:
The diastereoselective additions of 2 with methyl α-lithioacetate or lithioacetonitrile provided a straightforward path to introduce handles for conjugation via amide bond or ether formation. The reaction of ketone 2 with lithium bis(trimethylsilyl)amide (LiHMDS)/methyl acetate produced ester 9 in 86% yield. Similarly, the combination of 2 with LiHMDS and acetonitrile produced nitrile 10 in 98% yield. Hydrolysis of 9 with trimethyltin hydroxide followed by DIC-mediated coupling with N-hydroxysuccinimide gave NHS ester 11 in 89% yield (FIG. 3B). Alternately, using LiOH gave 11 in 46% yield after DIC coupling. Through amide coupling, 11 gave the fluorescent TAMRA-conjugate 12 with favorable physiochemical properties, and 11 was also combined with hydrazine monohydrate to give hydrazide 13 with a potential handle for aldehyde conjugation. TCO 9 also was combined with LiAlH4 to provide diol 14 in 89% yield which was next used in a Williamson ether synthesis with NaH/propargyl bromide to give 96% yield of propargyl ether 15. […] Amine 16 was synthesized by LiAlH4 reduction of TCO nitrile 10 in 93% yield to introduce an acid reactive conjugation handle. […] In summary, ketone 2 can serve as a readily prepared, central intermediate for the diastereoselective preparation of a range of hydrophilic a-TCO conjugates.

Data set [2] is described as follows: Stopped-flow kinetics of the Diels-Alder reaction with tetrazine 20. As to conditions: toward tetrazine 20, stopped flow, 25° C., 95:5 PBS:MeOH. The data set is classed as physicochemical. Here is the method: The kinetics for the reaction of a-TCO derivative 14 toward a 3,6-dipyridyl-s-tetrazinyl succinamic acid derivative 20 were measured by stopped flow kinetics at 25° C. in 95:5 PBS:MeOH (FIG. 4A).
Stopped-flow kinetics measurements were performed on a SX18MV-R stopped-flow spectrophotometer (Applied Photophysics Ltd.) with temperature control (25° C.).
The reaction between 5-ax-hydroxy-5-eq-(2-hydroxyethyl)-trans-cyclooctene 14 and 3,6-dipyridyl-s-tetrazine-mono-succinamic acid 20 was monitored by a SX18MV-R stopped-flow spectrophotometer (Applied Photophysics Ltd.) at 325 nm by measuring the exponential decay of tetrazine under pseudo-first order conditions. Solutions of 14 (0.98, 1.46, 1.95, and 2.63 mM in 9:1 PBS/MeOH) and tetrazine (0.1 mM in PBS) were mixed in the stopped-flow spectrophotometer in equal volumes resulting in final concentrations of 0.49 mM, 0.73 mM, 0.97 mM, and 1.31 mM of 14 and 0.05 mM of tetrazine in 95:5 PBS/MeOH. Three independent samples were prepared for each TCO concentration and measurements were taken in duplicate every 0.1 ms for 0.1 sat 25° C. The observed rates kobs for each run were determined by nonlinear regression analysis of the data points using Prism software (Version 8.00, GraphPad Software Inc). The average kobs values were plotted against the concentrations of 14 to obtain the bimolecular rate constant k2 from the slope of the plot.
The observed rates (kobs) of 5-ax-hydroxy-5-eq-(2-hydroxyethyl)-trans-cyclooctene 14 (10-30 equivalents) and 3,6-dipyridyl-s-tetrazine-mono-succinamic acid 20 were measured using stopped-flow kinetics. The final concentrations of 14 after injection were (A) 0.49 mM, (B) 0.73 mM, (C) 0.97 mM, and (D) 1.31 mM and the concentration of tetrazine was 0.05 mM in 95:5 PBS/MeOH at 25° C. Duplicate measurements were obtained for three independent samples for each concentration of 14.
The reaction between 5-ax-hydroxy-trans-cyclooctene 4a and 3,6-dipyridyl-s-tetrazine-mono-succinamic acid 20 was monitored by a SX18MV-R stopped-flow spectrophotometer (Applied Photophysics Ltd.) at 325 nm by measuring the exponential decay of tetrazine under pseudo-first order conditions. Solutions of 4a (100, 200, 300, and 400 μM in 9:1 PBS/MeOH) and tetrazine (20 μM in PBS) were mixed in the stopped-flow […] 95:5 PBS/MeOH. Three independent samples were prepared for each TCO concentration and measurements were taken in duplicate every 0.1 ms for 0.2 s at 25° C. The observed rates kobs for each run were determined by nonlinear regression analysis of the data points using Prism software (Version 8.00, GraphPad Software Inc). The average kobs values were plotted against the concentrations of 4a to obtain the bimolecular rate constant k2 from the slope of the plot.
The observed rates (kobs) of 5-ax-hydroxy-trans-cyclooctene 4a (5-20 equivalents) and 3,6-dipyridyl-s-tetrazine-mono-succinamic acid 20 were measured using stopped-flow kinetics. […]

Test in data set [3]: as above
The data set is classed as physicochemical. The following applies: 4a, 10 μM tetrazine, 95:5 PBS/MeOH, 25° C., in s-1 (unit assumed).

The nature of data set [4]: Stability in phosphate buffered D2O, pD=7.4 (33 mM) by quantitative 1H NMR. It is filed as physicochemical. Here is the method:
(§1) Phosphate buffered D2O (pD=7.4) was prepared by combining anhydrous sodium dihydrogen phosphate (NaH2PO4, 77.1 mg) and anhydrous disodium hydrogen phosphate (Na2HPO4, 204.4 mg) with 20 mL of D2O to make a 0.1 M solution. The pD was measured on a Fisher Scientific AB15 Plus pH meter and pH values were converted to pD by adding 0.4 units. The pD was adjusted to 7.4 with DCI (35 wt. % in D2O) and NaOD (40 wt. % in D2O) as necessary.
A solution of 14 (4.3 mg, 25 μmol) in phosphate buffered D2O (750 μL, pD=7.4) was monitored by quantitative ^1H NMR on a 600 MHz instrument to observe the decomposition of the trans-isomer over time. Methyl tert-butyl ether (3.0 μL, 26 μmol) was used as an internal standard. After 1 day, 90% of 14 remained and after 5 days, 39% remained (FIG. 6B). The results were plotted using Prism software (Version 8.00, GraphPad Software Inc). A waterfall plot of the ^1H NMR spectra is provided.
A solution of 4a (3.2 mg, 25 μmol) in phosphate buffered D2O (750 μL, pD=7.4) was monitored by quantitative ^1H NMR on a 600 MHz instrument to observe the decomposition of the trans-isomer over time. Methyl tert-butyl ether (3.0 μL, 26 μmol) was used as an internal standard. After 1 day, 85% of 4a remained and after 5 days, 35% remained (FIG. 6B). The results were plotted using Prism software (Version 8.00, GraphPad Software Inc). A waterfall plot of the ^1H NMR spectra is provided.

Data set [5] in a line: Stability in methanol-d4 (35 mM) by quantitative 1H NMR. It is filed as physicochemical. As to conditions: 35 mM in methanol-d4, after 7 days. How it is done:
A solution of 14 (4.5 mg, 26 μmol) in methanol-d4 (750 μL) was monitored by quantitative ^1H NMR on a 600 MHz instrument to observe the decomposition of the trans-isomer over time. Methyl tert-butyl ether (3.1 μL, 26 μmol) was used as an internal standard. […] The results were plotted using Prism software (Version 8.00, GraphPad Software Inc). A waterfall plot of the ^1H NMR spectra is provided.
A solution of 4a (3.3 mg, 26 μmol) in methanol-d4 (750 μL) was monitored by quantitative ^1H NMR on a 600 MHz instrument to observe the decomposition of the trans-isomer over time. Methyl tert-butyl ether (3.1 μL, 26 μmol) was used as an internal standard. […] The results were plotted using Prism software (Version 8.00, GraphPad Software Inc). A waterfall plot of the ^1H NMR spectra is provided.

For data set [6] the following is noted: 4a with a PEGylated amide of 20 in 100% H2O, previously measured (Darko et al.); cited from earlier work.
Data set [7] is described as follows: Stability with mercaptoethanol (25 mM) in phosphate buffered D2O, pD=7.4. It is filed as physicochemical. As to conditions: 25 mM mercaptoethanol. How it is done: as §1
TCO 14 (3.1 mg, 18 μmol) in a solution of mercaptoethanol in phosphate buffered D2O (720 μL, 18 μmol, 25 mM, pD=7.4) was monitored by quantitative 1H NMR on a 600 MHz instrument to observe the decomposition of the trans-isomer over time. Methyl tert-butyl ether (2.1 μL, 18 μmol) was used as an internal standard. After 4 hours, 93% of 14 remained and 49% of 14 remained after 20 hours. (FIG. 6C). The results were plotted using Prism software (Version 8.00, GraphPad Software Inc). A waterfall plot of the ^1H NMR spectra is provided.
TCO 4a (2.3 mg, 18 μmol) in a solution of mercaptoethanol in phosphate buffered D2O (720 μL, 18 μmol, 25 mM, pD=7.4) was monitored by quantitative 1H NMR on a 600 MHz instrument to observe the decomposition of the trans-isomer over time. Methyl tert-butyl ether (2.1 μL, 18 μmol) was used as an internal standard. After 4 hours, 89% of 4a and 49% of 4a remained after 20 hours. (FIG. 6C). The results were plotted using Prism software (Version 8.00, GraphPad Software Inc). A waterfall plot of the ^1H NMR spectra is provided.

For data set [8], the system named is cellular protein sulfenic acids. As to conditions: generally; not under the conditions of intracellular bioorthogonal chemistry (generally ≤10 μM); cited from earlier work.
The conditions of data set [9]: toward 20; no kinetic example for 4b in the patent, FIG. 4A footnotes cite earlier measurements in 100% H2O; cited from earlier work.

On to `C#CCOCC[C@]1(O)CC/C=C/CCC1` [Compound 15, 5-ax-Hydroxy-5-eq-(2-(prop-2-yn-1-yloxy)ethyl)-trans-cyclooctene], for which the storage stability entry in [1] is given as “more stable alternative”.

On to `OC1CC/C=C/CCC1` (stereo not drawn) [Compound 4a, 5-ax-Hydroxy-trans-cyclooctene], for which the “second-order rate constant k2” value in data set [2] is listed as 70,000±1800 M^−1s^−1. Moreover, the Kobs is 3.407 in data set [3] (Table 2 head A (0.49 mM)), 6.966 in [3] (Table 2 head B (0.73 mM)), 10.09 in data set [3] (Table 2 head C (0.97 mM)) and 13.86 in [3] (Table 2 head D (1.31 mM)). Further, the TCO remaining in [4] (phosphate buffered D2O pD 7.4, 1 day (24 h), room temperature) is 85%; in [4] (phosphate buffered D2O pD 7.4, 5 days) it was 35%; in [7] (phosphate buffered D2O pD 7.4, 4 hours), 89%; in data set [7] (phosphate buffered D2O pD 7.4, 20 hours), 49%. In addition, in [5], the “decomposition of the trans-isomer” value is on record as “no observable decomposition”. The k2 in data set [6] was 80,200.

In the case of `C=CCC1(O)CC/C=C/CCC1` (stereo not drawn) [Compound 6, 5-eq-Allyl-5-ax-hydroxy-trans-cyclooctene], the storage stability entry in [1] was “polymerize if not stored in solution”.

With `C#CCC1(O)CC/C=C/CCC1` (stereo not drawn) [Compound 5, 5-ax-Hydroxy-5-eq-propargyl-trans-cyclooctene], the “TCO concentration at which sulfenic acids are modified” value in data set [8] was no less than 500 µM.

On to `OC1CC/C=C/CCC1` (stereo not drawn) [Compound 4b, equatorial-5-hydroxy-trans-cyclooctene], for which the “second-order rate constant k2 (equatorial isomer, comparison value)” value in data set [9] was 22,400±40 M^−1s^−1.
